Measurements as given in US20260159512A1, “BCAT2 INHIBITORS” (AGIOS PHARMACEUTICALS, INC., priority 2021, published 2026).

Columns and labels:
Conditions in all cases: average where tested multiple times
[1] = target: T1, BCAT2 (Homo sapiens, UniProt O15382); experiment: BCAT2 in vitro enzyme inhibition assay (resazurin/diaphorase-coupled fluorescence); format: biochemical
T1 sequence (O15382 28-392): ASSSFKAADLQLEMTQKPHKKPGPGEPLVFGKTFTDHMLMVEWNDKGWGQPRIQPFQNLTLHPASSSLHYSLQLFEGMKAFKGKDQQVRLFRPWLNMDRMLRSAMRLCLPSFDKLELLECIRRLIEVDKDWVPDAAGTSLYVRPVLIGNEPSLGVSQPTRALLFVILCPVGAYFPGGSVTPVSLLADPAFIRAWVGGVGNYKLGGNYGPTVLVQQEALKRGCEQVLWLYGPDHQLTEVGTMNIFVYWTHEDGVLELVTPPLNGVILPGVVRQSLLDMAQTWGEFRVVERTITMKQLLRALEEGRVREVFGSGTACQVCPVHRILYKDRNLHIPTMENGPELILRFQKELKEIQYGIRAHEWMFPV
Method in brief: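 Coupled fluorescence readout: glutamate formed from L-leucine/α-ketoglutarate transamination drives GDH/NAD/diaphorase reduction of resazurin (Ex 540/Em 590). Human BCAT2 was first exposed 1 h at room temperature to compound, top final 100 μM in 3-fold, 10-point series; substrate reaction ran 1 h before SDS quench, in technical duplicate with DMSO max and enzyme-free min controls.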

[2] = target: T2, hBCAT1 (Homo sapiens, UniProt P54687); experiment: BCAT1 in vitro enzyme inhibition assay (resazurin/diaphorase-coupled fluorescence); format: biochemical
T2 sequence (P54687 1-386): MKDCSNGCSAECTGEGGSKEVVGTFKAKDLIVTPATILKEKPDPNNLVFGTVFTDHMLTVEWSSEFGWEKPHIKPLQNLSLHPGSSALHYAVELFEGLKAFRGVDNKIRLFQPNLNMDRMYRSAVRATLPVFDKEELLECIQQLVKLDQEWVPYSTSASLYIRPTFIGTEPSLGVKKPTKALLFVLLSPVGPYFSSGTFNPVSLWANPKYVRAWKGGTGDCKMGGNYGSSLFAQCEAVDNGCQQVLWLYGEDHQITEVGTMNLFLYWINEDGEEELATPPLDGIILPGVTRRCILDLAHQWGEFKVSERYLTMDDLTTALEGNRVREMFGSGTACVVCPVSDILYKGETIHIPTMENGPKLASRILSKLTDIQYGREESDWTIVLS
Method in brief: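 Ten-point, 3-fold compound series (top final 100 μM, delivered 1:50 from 50× DMSO stocks) tested against hBCAT1. Inhibition detected via diaphorase-coupled resazurin fluorescence, duplicate wells, with values from repeated runs averaged.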

[3] = target: T1, BCAT2; experiment: BCAT2 in vitro cell inhibition using engineered A549 cells (KMV cell assay, 13C6-KMV by LC-MS/MS); format: cell-based; set-up: The result was an engineered A549 cell line that expressed endogenous BCAT2; endogenous in cells; host or cells: A549 cells with MUT and BCAT1 knocked out by CRISPR/CAS9; key to BCAT2 Cell Inhibition: A: less than or equal to 0.100 μM; B: greater than 0.100 and less than or equal to 0.500 μM; C: greater than 0.500 and less than or equal to 1.000 μM; d: greater than 1.000 μM; E: no fit

IC50 [1] [nM]	IC50 [2] [nM]	IC50 [3] [nM]	BCAT2 Cell Inhibition [3]	Structure (SMILES)
≤ 100	< 500	≤ 100		O=C(N[C@H]1CCC[C@@H](n2c(-c3ccccc3F)nc3cnc(-c4ccccn4)cc32)[C@@H]1O)c1ncc(Cl)s1 [Example 242, 5-chloro-N-((1S,2R,3R)-3-(2-(2-fluorophenyl)-6-(pyridin-2-yl)-1H-imidazo[4,5-c]pyridin-1-yl)-2-hydroxycyclohexyl)thiazole-2-carboxamide]
100 to 500	> 5000	> 1000		O=C(N[C@H]1CCC[C@@H](n2c(-n3nccn3)nc3cnc(-n4nccn4)cc32)C1)c1ncc(C(F)F)s1 [Example 67, N-((1S,3R)-3-(2,6-di(2H-1,2,3-triazol-2-yl)-1H-imidazo[4,5-c]pyridin-1-yl)cyclohexyl)-5-(difluoromethyl)thiazole-2-carboxamide]
≤ 100	< 500	≤ 100		C#Cc1cnc(C(=O)N[C@H]2CCC[C@@H](n3c(-c4ncccc4C)nc4cnc(-n5nccn5)cc43)C2)s1 [Example 61, 5-ethynyl-N-((1S,3R)-3-(2-(3-methylpyridin-2-yl)-6-(2H-1,2,3-triazol-2-yl)-1H-imidazo[4,5-c]pyridin-1-yl)cyclohexyl)thiazole-2-carboxamide]
≤ 100	500 to 1000	≤ 100		O=C(N[C@H]1CCC[C@@H](n2c(-c3ccccc3F)nc3cnc(-n4nccn4)nc32)C1)c1ncc(C(F)F)s1 [Example 62, 5-(difluoromethyl)-N-((1S,3R)-3-(8-(2-fluorophenyl)-2-(2H-1,2,3-triazol-2-yl)-9H-purin-9-yl)cyclohexyl)thiazole-2-carboxamide]
≤ 100	< 500	≤ 100		CC(C)(C)Cc1nc2cnc(-n3nccn3)cc2n1[C@@H]1CCC[C@H](NC(=O)c2ccc(Cl)s2)[C@H]1O [Example 387, 5-chloro-N-((1S,2R,3R)-2-hydroxy-3-(2-neopentyl-6-(2H-1,2,3-triazol-2-yl)-1H-imidazo[4,5-c]pyridin-1-yl)cyclohexyl)thiophene-2-carboxamide]
≤ 100	< 500	≤ 100		O=C(N[C@H]1CCC[C@@H](n2c(-c3ccccc3O)nc3cnc(-c4nc[nH]n4)cc32)C1)c1ncc(Cl)s1 [Example 340, 5-chloro-N-((1S,3R)-3-(2-(2-hydroxyphenyl)-6-(1H-1,2,4-triazol-3-yl)-1H-imidazo[4,5-c]pyridin-1-yl)cyclohexyl)thiazole-2-carboxamide]
100 to 500	> 5000		E	O=C(N[C@H]1CCC[C@@H](n2c(-c3ncccc3F)nc3cnc(N4CCCC4=O)cc32)C1)c1ncc(C(F)F)s1 [Example 49, 5-(difluoromethyl)-N-((1S,3R)-3-(2-(3-fluoropyridin-2-yl)-6-(2-oxopyrrolidin-1-yl)-1H-imidazo[4,5-c]pyridin-1-yl)cyclohexyl)thiazole-2-carboxamide]
≤ 100	< 500	≤ 100		Cc1cnn(-c2cc3c(cn2)nc(CC(C)C)n3[C@@H]2CCC[C@H](NC(=O)c3ncc(Cl)s3)[C@H]2O)n1 [Example 243, 5-chloro-N-((1S,2R,3R)-2-hydroxy-3-(2-isobutyl-6-(4-methyl-2H-1,2,3-triazol-2-yl)-1H-imidazo[4,5-c]pyridin-1-yl)cyclohexyl)thiazole-2-carboxamide]
≤ 100	< 500	≤ 100		CC(C)Cc1nc2cnc(-c3nc[nH]n3)cc2n1[C@@H]1CCC[C@H](NC(=O)c2ccc(C#N)s2)C1 [Example 344, 5-cyano-N-((1S,3R)-3-(2-isobutyl-6-(1H-1,2,4-triazol-3-yl)-1H-imidazo[4,5-c]pyridin-1-yl)cyclohexyl)thiophene-2-carboxamide]
≤ 100	< 500	≤ 100		O=C(N[C@H]1C[C@H](O)C[C@@H](n2c(-c3ccccc3F)nc3cnc(-c4ncco4)cc32)C1)c1ncc(Cl)s1 [Example 260, 5-chloro-N-((1R,3S,5S)-3-(2-(2-fluorophenyl)-6-(oxazol-2-yl)-1H-imidazo[4,5-c]pyridin-1-yl)-5-hydroxycyclohexyl)thiazole-2-carboxamide]
≤ 100	< 500	≤ 100		O=C(NC1COCC(n2c(-c3ccccc3F)nc3cnc(-n4nccn4)cc32)C1)c1ncc(C(F)F)s1 (single isomer, unassigned) [Example 142, 5-(difluoromethyl)-N-(5-(2-(2-fluorophenyl)-6-(2H-1,2,3-triazol-2-yl)-1H-imidazo[4,5-c]pyridin-1-yl)tetrahydro-2H-pyran-3-yl)thiazole-2-carboxamide]
≤ 100	< 500	≤ 100		CC(C)Cc1nc2cnc(-c3nccs3)cc2n1[C@@H]1CCC[C@H](NC(=O)c2ncc(Cl)s2)C1 [Example 163, 5-chloro-N-((1S,3R)-3-(2-isobutyl-6-(thiazol-2-yl)-1H-imidazo[4,5-c]pyridin-1-yl)cyclohexyl)thiazole-2-carboxamide]
≤ 100	< 500	≤ 100		O=C(N[C@H]1CCC[C@@H](n2c(-c3ccccc3O)nc3cnc(-n4nccn4)cc32)C1)c1ncc(Cl)s1 [Example 363, 5-chloro-N-((1S,3R)-3-(2-(2-hydroxyphenyl)-6-(2H-1,2,3-triazol-2-yl)-1H-imidazo[4,5-c]pyridin-1-yl)cyclohexyl)thiazole-2-carboxamide]
≤ 100	< 500	≤ 100		CC(C)Cc1nc2cnc(-c3ccccn3)cc2n1[C@@H]1C[C@@H](O)C[C@H](NC(=O)c2ncc(Cl)s2)C1 (single isomer, unassigned) [Example 214]
≤ 100	< 500	100 to 500		CC(C)Cc1nc2cnc(-c3cscn3)cc2n1[C@@H]1CCC[C@H](NC(=O)c2ncc(Cl)s2)C1 [Example 159, 5-chloro-N-((1S,3R)-3-(2-isobutyl-6-(thiazol-4-yl)-1H-imidazo[4,5-c]pyridin-1-yl)cyclohexyl)thiazole-2-carboxamide]
≤ 100	< 500	≤ 100		O=C(N[C@H]1CCC[C@@H](n2c(-c3ccccc3F)nc3cnc(-n4ccnn4)cc32)C1)c1ccc(Br)s1 [Example 14, 5-bromo-N-((1S,3R)-3-(2-(2-fluorophenyl)-6-(1H-1,2,3-triazol-1-yl)-1H-imidazo[4,5-c]pyridin-1-yl)cyclohexyl)thiophene-2-carboxamide]
100 to 500	> 5000	> 1000		CC(C)Cc1nc2cnc(-c3ccccn3)cc2n1[C@H]1C[C@@H](NC(=O)c2ncc(Cl)s2)CN(C)C1 [Example 262, 5-chloro-N-((3R,5S)-5-(2-isobutyl-6-(pyridin-2-yl)-1H-imidazo[4,5-c]pyridin-1-yl)-1-methylpiperidin-3-yl)thiazole-2-carboxamide]
≤ 100	< 500	≤ 100		O=C(N[C@H]1CCC[C@@H](n2c(-c3ccccc3F)nc3cnc(-c4nc[nH]n4)cc32)[C@@H]1O)c1ncc(Cl)s1 [Example 400, 5-chloro-N-((1S,2R,3R)-3-(2-(2-fluorophenyl)-6-(1H-1,2,4-triazol-3-yl)-1H-imidazo[4,5-c]pyridin-1-yl)-2-hydroxycyclohexyl)thiazole-2-carboxamide]
≤ 100	500 to 1000	≤ 100		N#Cc1ccccc1-c1nc2cnc(-c3nc[nH]n3)cc2n1[C@@H]1CCC[C@H](NC(=O)c2ccc(Cl)s2)C1 [Example 356, 5-chloro-N-((1S,3R)-3-(2-(2-cyanophenyl)-6-(1H-1,2,4-triazol-3-yl)-1H-imidazo[4,5-c]pyridin-1-yl)cyclohexyl)thiophene-2-carboxamide]
